PMC5907308, “21st Brazilian Diabetes Society Congress” (Diabetology & Metabolic Syndrome, 2018)
Like-named read-outs stand apart in the source and are kept apart here.

Experiments:
OVX female Swiss mice = format: in vivo, mouse
Description: (§1) Methods: Female Swiss mice with 80–100 days of life were OVX, after 2 weeks females in anestrous were distributed in the control groups (CTL): fed with normolipid diet and water containing 0.01% ethanol (vehicle); BPA control (CBPA): normolipid diet and water containing 0.01% ethanol and 1 μg/mL BPA; HFD: diet containing 36 g% fat and vehicle; and (HBPA): HFD and BPA. After 3 months, glucose tolerance test (GTT) and islet isolation for insulin secretion were performed (CEUA UFRJ-Macaé: MAC035 approval). Data were analyzed for the distribution of normality (Shapiro–Wilk), followed by analysis of variances: parametric (ANOVA followed by Newman–Keuls) or non-parametric (Kruskal–Wallis followed by Dunns; P < 0.05).

[1] = test system: islets isolated from OVX female Swiss mice; test: Glucose-stimulated insulin secretion of isolated islets; format: cell-based, mouse; details: 2.8 mM glucose; HFD islets 1.2 ± 0.14
Description: as §1

diabetic pregnant women = format: in vivo, human; details: 2009-2016, medical records
Description: Methods: We analyzed the medical records of the diabetic pregnant women who were attended at the Endocrinology Clinic of Hospital do Servidor Público Municipal between 2009 and 2016. The incidence of fetal macrosomia, prematurity, respiratory distress, hospitalization in intensive care unit and abortion were analyzed and correlated to the glycemic control. Good glycemic control was defined by the presence of at least 80% of capillary blood glucose within the following range: pre-prandial < 90 mg/dL, 1 h postprandial < 140 mg/dL, 2 h postprandial < 120 mg/dL

patient with glucagonoma = test: Case report: glucagonoma; format: in vivo, human; details: zinc vitamin supplement and Octreotide
Excerpt: Case report: patient four, hospitalized in 2015 for investigation of cholestatic syndrome associated with pancreatic mass of 51x48 mm evidenced on abdominal tomography (15/05/03). The patient underwent corpocaudal pancreatectomy and total splenectomy, with free surgical margins, but with angiolymphatic invasion. […] The patient received chemotherapy with gemcitabine which was replaced by Folfirinox. However, after 1 year without medical follow-up, they returned presenting weight loss, cutaneous disseminated lesions in the upper and lower limbs (Fig. 1), trunk and genitalia, angular cheilitis, macroglossia, deep venous thrombosis of the lower limbs and glycemia above 400 mg/dl. Figure 1: Cutaneous disseminated lesions It was used several antimicrobial regimens to treat skin lesions, unsuccessful, and performed biopsies of the skin, that diagnosis psoriasiform spongious dermatitis. The case was referred to the endocrinology departament and we did the diagnosis of glucagonoma, based on the symptoms and skin lesions, confirmed by pancreatic glucagon levels of 722 pg/ml (reference value < 208 pg/ml). […] We considered diagnosis hypothesis of adrenal insufficiency and after offered hydrocortisone, it was observed improvement in their condition in 24 h.

male Wistar rats = format: in vivo, rat
Description: In addition, experimental studies of effects of different doses are important in assessing the safety of a drug. The objective was to evaluate the lipid biomarkers in rats treated with several doses of prednisone. […] The treatment was daily for of 21 days, with weekly measures of body weight, food consumption and calories ingested on days 0, 8 and 16 of treatment. On the last day, the caloric gain was evaluated and then the rats were anesthetized and killed by decapitation to collect the whole blood for serum biochemical analyzes. All data were statistically evaluated with significance of 5%.

[2] = test system: patients submitted to liver transplantation; format: in vivo, human; details: Tacrolimus 95% CI 1.2–32.5, p = 0.029; PDN 95% CI 2.4–21, 8, p < 0.001
Excerpt: A total of 152 patients were included. […] Comparisons were done with Chi square tests and analysis of independent risk factors with multivariate logistic regression.

[3] = test system: male rats with mild diabetes (neonatal streptozotocin); format: in vivo, rat
Description: Background: The prednisone (PRD) is a glucocorticoid that may lead to the development of temporary hyperglycemia. […] The objective was to evaluate the effects of PRD in mild diabetic rats by biochemical and immunological biomarkers. […] The rats were separated into 4 groups: control (C), treated control C + PRD (oral treatment of 1.25 mg/kg/day PRD); diabetic DM (mild diabetes) and treated diabetic DM + PRD (mild diabetes, treatment with same dose as C + PRD group). Untreated groups received vehicle, adjusted volume according to body weight. The treatment daily for 21 days and it were weekly measured the body weight, food and water intake, and glycemia. In the 3rd week of treatment, the oral glucose tolerance test (OGTT) and insulin tolerance test (TTI) were performed, area under the glycemic curve (ASC) values were calculated. In the 21st day, the rats were killed and the blood was collected for serum biochemical, leukogram and immunoglobulin G determinations. All data was statistically evaluated with 5% significance.

[4] = test system: Normoglycemic adult Wistar rats; details: for TOTG glycemia, 120 min: CONT 93.7 ± 4.1
Description: The side effects are primarily determined by dosage and time of use. The objective was to evaluate the effects of increasing doses of PRD on the action of endogenous insulin in Wistar rats. Normoglycemic adult rats weighing 450–510 g were divided into 5 groups, differentiated by their daily treatment (18 days) orally, as the PRD dose used [CONT, PRD1 (0.625 mg/kg), PDR2 (1.250 mg/kg), PRD3 (2.500 mg/kg) and PRD4 ([…])]. Rats received water and food ad libitum, and on 0, 8 and 16 days of treatment the fasting glycemia was measured. On the 17th day, the oral glucose tolerance test (TOTG) was performed, collecting blood for glucose levels at fasting times (− 1 min) and 30, 60 and 120 min after administration of glucose solution. […] The data were statistically analyzed with significance of 5%.

[5] = test system: patients with long-standing T1DM; test: Mixed-meal tolerance test + oral 5 mg glibenclamide, ultrasensitive C-peptide; format: in vivo, human; details: 4 of 6 T1DM patients
Description: Fasting blood was taken for measurement of C-peptide (ELISA; Mercodia® (Uppsala, Sweden; cat.Nº10-1141-01). Thirty one patients (24,5%) had C-peptide > 10 pmol/L or 0.03 ng/ml. Six patients were randomly recruited to undergo a mixed-meal tolerance test + oral 5 mg glibenclamide.

participants with T1DM = test: Multiple-dosing crossover euglycemic glucose clamp study, steady-state PK/PD; format: in vivo, human
Excerpt: For both insulins, participants received 0.4 (n = 24) or 0.6 U/kg/day (n = 24) at ~ 8 am for 8 days. Main endpoint: within-day variability (fluctuation) of smoothed glucose infusion rate (GIR) over a 24-h dosing period (GIR-smFL0-24). […] This is an ENCORE abstract previously presented at ADA2017. Funding and editorial support provided by Sanofi (Fig. 1)

[6] = test system: T2DM pts uncontrolled on BOT with other BI; test: TOP-2 prospective observational study, 6 month interim analysis; format: in vivo, human
Description: Adult pts currently on a BOT with an indication for changing their insulin therapy due to non-achievement of glycemic targets (A1c 7.5–10.0%) are enrolled. Primary endpoint (EP) is the rate of pts achieving a fasting plasma glucose (FPG) ≤ 110 mg/dL after 6 and 12 months, respectively. Secondary EPs include change in A1c, FPG, body weight (BW) and insulin dose, hypoglycemia incidence and safety. Here we report on an interim analysis including all German pts, for whom 6 month results were available 15 months after study start (n = 661). […] Less pts experienced nocturnal hypoglycemia (0.5% vs 1.2%). […] Final results are expected for 2018 (Fig. 1)

[7] = test system: T2D pts aged ≥ 65 years on basal insulin; test: DELIVER 3 retrospective real-world study; format: in vivo, human
Description: Older patients (pts) with T2D are disproportionately impacted by treatment-related hypoglycemia and its adverse consequences. […] Pts had ≥ 12 months (mo) of baseline data and ≥ 6 mo of follow-up data. The effect of cohort on A1C reduction, hypoglycemia incidence/event rate, and achievement of A1C goal at 6 mo were assessed by generalized linear models or logistic regression models with adjustment for baseline characteristics. […] This is an ENCORE abstract previously presented at ADA2017. Funding and editorial support provided by Sanofi.

[8] = test system: adults with T2D using basal insulin; test: DELIVER2 real-world study, switch of basal insulin; format: in vivo, human; details: PS matched
Description: Methods: DELIVER2 used data from Predictive Health Intelligence Environment database of medical records representing 37 integrated delivery networks. […] The endpoints were A1C change from baseline, incidence and event rate of hypoglycemia (hypo) (identified by ICD-9/ICD-10 and/or plasma glucose level ≤ 70 mg/dL), and HCU (incidence and event rate of all-cause, diabetes-, and hypo-related visits) within 6 m.

patients with T2D = test: Network meta-analysis Gla-300 vs IDeg (inputs of the cost-effectiveness model); format: in vivo, human; details: estimated by network meta-analysis
Excerpt: Methods: This modelling analysis simulated a cohort representing patients in the EDITION 2 and 3 trials using the IMS Core Diabetes Model with a time horizon of 50 years (lifetime) for 1,000,000 patients starting at 62 years old. […] The treatment cost was $1,561 per SHE and $13.65 per NSHE (2015 $). Utilities to estimate quality-adjusted life years (QALYs) for multiple comorbidities were applied using the minimum utility approach. A disutility of -0.0118 was applied for SHE, and method of diminishing marginal disutility for NSHE.

[9] = 0.625 mg/kg daily orally (PRD1)
[10] = 1.250 mg/kg daily orally (PRD2)

CC(C)(c1ccc(O)cc1)c1ccc(O)cc1 [BPA, Bisphenol-A]
glycemia in GTT (OVX female Swiss mice; 15 min, HFD 444 ± 13): 427 ± 17 mg/dL | glycemia in GTT (OVX female Swiss mice; 30 min, HFD 453 ± 23): 450 ± 22 mg/dL | insulin secretion [1]: 1.8 ± 0.2 ng/islet h

CN(C)C(=N)N=C(N)N [D + PA + MTF, metformin]
pregnant women with adverse perinatal outcomes / women in group (diabetic pregnant women): 5/12

C[C@@H](O)[C@@H]1NC(=O)[C@H](CCCCN)NC(=O)[C@@H](Cc2c[nH]c3ccccc23)NC(=O)[C@H](Cc2ccccc2)NC(=O)[C@@H](NC(=O)[C@H](N)Cc2ccccc2)CSSC[C@@H](C(=O)N[C@H](CO)[C@@H](C)O)NC1=O [Octreotide]
skin lesions (necrolytic migratory erythema) (patient with glucagonoma): effective in reducing the number and extent of lesions

C[C@]12C=CC(=O)C=C1CC[C@@H]1[C@@H]2C(=O)C[C@@]2(C)[C@H]1CC[C@]2(O)C(=O)CO [prednisone]
calories ingested, 16th day of treatment (male Wistar rats; 5.0 mg/Kg daily (PRD2), n = 7): 93.2 ± 20.4 kcal/day | calories ingested, day 0 (male Wistar rats; 5.0 mg/Kg daily (PRD2), n = 7): 63.7 ± 12.3 kcal/day | calories ingested, day 8 of treatment (male Wistar rats; 5.0 mg/Kg daily (PRD2), n = 7): 69.0 ± 18.1 kcal/day | body weight, dietary intake, serum triglyceride, total cholesterol, VLDL, LDL, non-HDL cholesterol (male Wistar rats; 2.5 and 5.0 mg/Kg, 21 days, p > 0.05): no differences | independent risk factor for PTDM, OR [2]: 7.2 | glycemia increasing vs C group, all weeks of treatment ([3]; DM + PRD, 1.25 mg/kg/day): 51% | lymphocytes, increase vs C group ([3]; DM + PRD, day 21): 19% | neutrophils, increase vs C group ([3]; DM + PRD, day 21): 200% | total leukocytes, increase vs C group ([3]; DM + PRD, day 21): 30% | food intake increasing vs C group, 2nd and 3rd week ([3]; DM + PRD, oral 1.25 mg/kg/day): 18% | high-density lipoprotein, decrease vs C group ([3]; DM + PRD, serum): 8% | triglycerides, decrease vs C group ([3]; DM + PRD, serum): 21% | very low-density lipoproteins, decrease vs C group ([3]; DM + PRD, serum): 10% | OGTT glycemia, 30 min ([3]; DM + PRED group, 3rd week): 275 mg/dL | OGTT glycemia, 60 min ([3]; DM + PRED group, 3rd week): 258 mg/dL | OGTT glycemia, 120 min ([3]; DM + PRED group, 3rd week): 161 mg/dL | body weight decrease, all measures ([3]; DM and DM + PRD groups): about 27% | TOTG glycemia, time -1 min ([4]; 0.625 mg/kg (PRD1), day 17, CONT 87.7 ± 5.7): 106 ± 5.8 mg/dL | TOTG glycemia, 120 min ([4]; 0.625 mg/kg (PRD1)): 122.8 ± 15.7 mg/dL | fasting glycemic increase compared to CONT, day 8 [4, 9]: 30% | fasting glycemic increase compared to CONT, day 16 [4, 9]: 20% | glycemia increase of PRD1 compared to PRD4, day 16 ([4]; 0.625 mg/kg vs PRD4): 16% | TOTG glycemia, 120 min ([4]; 1.250 mg/kg (PRD2)): 120.6 ± 11.6 mg/dL | fasting glycemic increase compared to CONT, day 8 [4, 10]: 27% | fasting glycemic increase compared to CONT, day 16 [4, 10]: 9% | ASCp, increased glycemic load vs CONT, interval 30–60 min ([4]; PRD4): 36%

COc1ccc(Cl)cc1C(=O)NCCc1ccc(S(=O)(=O)NC(=O)NC2CCCCC2)cc1 [sulfonylurea, glibenclamide]
patients with positive response (C-peptide > 200 pmol/L) [5]: 66.7%

insulin glargine [Gla-300]
Within-day GIR variability (GIR-smFL0-24), lower vs. Deg-100 (participants with T1DM; 0.4 U/kg/day once daily ~8 am for 8 days, steady state, n = 24, p = 0.047): 20% | Within-day GIR variability (GIR-smFL0-24) vs. Deg-100 (participants with T1DM; 0.6 U/kg/day, n = 24): comparable | mean (± SD) A1c before switching ([6]; n = 661): 8.21 ± 0.8% | HbA1c, TOP-2 FAS 6 month [mean±SD] ([6]; six months after switching to Gla-300): 7.67 ± 1.0% | achieved A1C < 7.0%, OR vs. other basal insulins ([7]; 95% CI 0.581, 1.098, P = 0.166): 0.798 | achieved A1C < 8.0%, OR vs. other basal insulins ([7]; 95% CI 0.749, 1.248, P = 0.797): 0.967 | A1C during 6 m follow-up [8]: 8.40% | Mean baseline A1C ([8]; 1827 pts per group): 8.95% | A1C reduction over 24 weeks (patients with T2D): 1.00%
